molecular target: T1, RORγ (Homo sapiens, UniProt P51449); experiment: RORγ GAL4 reporter gene assay (luciferase readout, 293FT cells); assay type: cell-based; details: inhibition of RORγ (GAL4-RORγ-LBD) in transfected 293FT cells, luciferase signal, overnight incubation; read-out: mean pIC50 (converted)
T1 construct: expressed in transfected cells; host or cells: 293FT cells (Invitrogen), expression vector pFN26A (Promega)
T1 sequence (P51449 269-508 limits assumed): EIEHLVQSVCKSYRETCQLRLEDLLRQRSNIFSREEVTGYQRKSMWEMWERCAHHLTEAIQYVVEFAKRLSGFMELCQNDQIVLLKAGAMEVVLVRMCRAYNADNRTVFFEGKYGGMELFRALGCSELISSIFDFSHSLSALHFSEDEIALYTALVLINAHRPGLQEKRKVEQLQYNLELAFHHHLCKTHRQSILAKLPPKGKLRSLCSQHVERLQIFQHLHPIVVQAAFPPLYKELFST
Experimental: RORγ GAL4 Reporter Gene Assay
Example inhibitors 1-38 were tested for their ability to inhibit RORγ activity in a RORγ GAL4 reporter gene assay. The assay procedure and results are described below.
RORγ GAL4 Reporter Gene Assay Description
A GAL4 one-hybrid reporter system employing luciferase readout was established to determine inhibition of RORγ in 293FT cells. The RORγ ligand-binding domain (LBD) was fused to the yeast GAL4 DNA binding domain (DBD) and placed under the control of the human cytomegalovirus (CMV) immediate early promoter, using expression vector pFN26A (Promega) and standard recombinant DNA cloning methods. To serve as a control in the assay, a similar vector was generated in which the GAL4-DBD was fused to Herpes simplex virus protein 16 (VP16), a constitutive transcriptional activator.
To monitor the inhibitory effect of compounds on RORγ, a transcriptional reporter construct was used. The pGL4.35 vector (Promega) contains nine copies of the GAL4 Upstream Activator Sequence (UAS). This sequence drives the transcription of the luciferase reporter gene luc2P in response to binding of a fusion protein containing the GAL4 DNA binding domain, as for example expressed by the GAL4-RORγ-LBD and GAL4-VP16 expression vectors described above. To allow a GAL4 fusion protein to drive the expression of the luciferase reporter, the pGL4.35 expression vector and the appropriate GAL4 fusion protein expression vector were bulk transfected in the 293FT cells using standard transfection techniques.
The day after transfection, cells were plated into 96 well plates, test compound was added and the plates were incubated overnight. Subsequently, the firefly luciferase activity was quantified using luciferase detection reagent and luminescence readout.
Detailed Assay Description
293FT cells (Invitrogen) were transfected with a GAL4 fusion protein expression vector (as described above) and the transcriptional reporter construct (pGL4.35, Promega). 60 μL of TransIT-293 transfection reagent (Mirus Bio) was added drop wise to 1500 μl Opti-MEM I Reduced Serum Medium (Invitrogen) and incubated at RT (RT) for 5 to 20 minutes. 1500 μL of this reagent mixture was added to 5 μg of GAL4 fusion protein expression vector and 5 μg of the transcriptional reporter construct, and incubated at RT for 20 minutes.
To harvest 293FT cells from a T75 flask, first the culture medium was taken off the cells. Subsequently, the cells were washed with Phosphate Buffered Saline (PBS) (Lonza), after which the PBS was removed. To dissociate the cells, 1 ml of TrypLE Express (Invitrogen) was added to the flask, followed by incubation at RT until the cells visually started to detach. Cells were collected in 5 mL of assay medium (DMEM culture medium (Lonza), 10% dialyzed FBS (Invitrogen) and Pen/Strep (Lonza)) to achieve a single cell suspension. 10×10^6 cells were spun down and re-suspended in 10 mL of assay medium. Subsequently, the cell suspension was added to the transfection mix tube, and then transferred as a whole to a T75 flask (Greiner), followed by overnight (16-24 hours) incubation at 37° C. and 5% CO2.
For compound screening, the cells were harvested (as described above) and counted. 13×10^6 cells were spun down, the supernatant was aspirated and the cells were re-suspended in 17.3 mL of assay medium obtaining a cell suspension of 0.75×10^6 cells/mL. 80 μL of cell suspension (60,000 cells) was plated per well into a white, flat bottom, tissue culture treated, 96 well screening plates (Greiner).
Test compounds were diluted, starting from a 10 mM dimethylsulfoxide (DMSO) stock solution, to serial dilutions in DMSO at 500× the final test concentration. Subsequently, these solutions were diluted to 5× the final test concentration in two 10-fold-dilution steps in assay medium. The final DMSO concentration of the 5× test compound solution was 1%. […]

| IC50 [nM] | SMILES |
| --- | --- |
| ≤ 1000 | O=C(Cc1ccc(S(=O)(=O)CC2CC2)nc1)Nc1ccc(C(OCC2COC2)(C(F)(F)F)C(F)(F)F)cc1 [Example 26, 2-[6-(cyclopropylmethylsulfonyl)-3-pyridyl]-N-[4-[2,2,2-trifluoro-1-(oxetan-3-ylmethoxy)-1-(trifluoromethyl)ethyl]phenyl]acetamide] |
| ≤ 100 | COCCOC(c1ccc(NC(=O)Cc2ccc(S(=O)(=O)CC3CC3)nc2)cc1)(C(F)(F)F)C(F)(F)F [Example 27, 2-[6-(cyclopropylmethylsulfonyl)-3-pyridyl]-N-[4-[2,2,2-trifluoro-1-(2-methoxyethoxy)-1-(trifluoromethyl)ethyl]phenyl]acetamide] |
| ≤ 1000 | O=C(Cc1ccc(S(=O)(=O)CC2CC2)nc1)Nc1ccc(C(OCCO)(C(F)(F)F)C(F)(F)F)cc1 [Example 28, 2-[6-(cyclopropylmethylsulfonyl)-3-pyridyl]-N-[4-[2,2,2-trifluoro-1-(2-hydroxyethoxy)-1-(trifluoromethyl)ethyl]phenyl]acetamide] |
| ≤ 100 | O=C(Cc1ccc(S(=O)(=O)CC2CC2)cn1)Nc1ccc(C(O)(C(F)(F)F)C(F)(F)F)cc1 [Example 29, 2-[5-(cyclopropylmethylsulfonyl)-2-pyridyl]-N-[4-[2,2,2-trifluoro-1-hydroxy-1-(trifluoromethyl)ethyl]phenyl]acetamide] |
| ≤ 100 | CC(C)OC(c1ccc(NC(=O)Cc2ccc(S(=O)(=O)CC3CC3)cn2)cc1)(C(F)(F)F)C(F)(F)F [Example 30, 2-[5-(cyclopropylmethylsulfonyl)-2-pyridyl]-N-[4-[2,2,2-trifluoro-1-isopropoxy-1-(trifluoromethyl)ethyl]phenyl]acetamide] |
| ≤ 1000 | O=C(Cc1ccc(S(=O)(=O)CC2CC2)cn1)Nc1ccc(C(O)(C2CC2)C2CC2)cc1 [Example 33, 2-[5-(cyclopropylmethylsulfonyl)-2-pyridyl]-N-[4-[dicyclopropyl(hydroxy)methyl]phenyl]acetamide] |
| ≤ 100 | COC(c1ccc(NC(=O)Cc2ccc(S(=O)(=O)CC3CC3)cn2)cc1)(C(F)(F)F)C(F)(F)F [Example 34, 2-[5-(cyclopropylmethylsulfonyl)-2-pyridyl]-N-[4-[2,2,2-trifluoro-1-methoxy-1-(trifluoromethyl)ethyl]phenyl]acetamide] |
| ≤ 1000 | O=C(Cc1ncc(S(=O)(=O)CC2CC2)cn1)Nc1ccc(C(O)(C(F)(F)F)C(F)(F)F)cc1 [Example 35, 2-[5-(cyclopropylmethylsulfonyl)pyrimidin-2-yl]-N-[4-[2,2,2-trifluoro-1-hydroxy-1-(trifluoromethyl)ethyl]phenyl]acetamide] |
| ≤ 1000 | O=C(Cc1ccc(S(=O)(=O)CC2CC2)nn1)Nc1ccc(C(O)(C(F)(F)F)C(F)(F)F)cc1 [Example 37, 2-[6-(cyclopropylmethylsulfonyl)pyridazin-3-yl]-N-[4-[2,2,2-trifluoro-1-hydroxy-1-(trifluoromethyl)ethyl]phenyl]acetamide] |
| ≤ 1000 | O=C(Cc1cnc(S(=O)(=O)CC2CC2)nc1)Nc1ccc(C(O)(C(F)(F)F)C(F)(F)F)cc1 [Example 38, 2-[2-(cyclopropylmethylsulfonyl)pyrimidin-5-yl]-N-[4-[2,2,2-trifluoro-1-hydroxy-1-(trifluoromethyl)ethyl]phenyl]acetamide] |

Reference: patent US10118895B2, “ROR gamma (RORγ) modulators” (LEAD PHARMA HOLDING B.V., priority 2015, dated 2018)
